Laboratory results taken from PubChem BioAssay (NCI).
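Tested at 5 concentrations; 48 h exposure; 96-well plates; endpoints linearly interpolated, else capped at highest concentration. Abbreviation: GI50, concentration required for 50% inhibition of growth. Definition used: TGI = concentration required for complete inhibition of growth.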 Where a SMILES comes first, the peptide text is derived from it. [ ]: non-standard residue; d: D form. The star is where a group is joined. Phe(4-NO2) = N[CH](Cc1ccc([N+](=O)[O-])cc1)C(=O)O; Boc = CC(C)(C)OC(=O)*

Key:
Test in all cases: DTP human tumour cell line panel, 48 h
MOLT-4 leukemia = system: MOLT-4 leukemia
SK-MEL-28 melanoma = system: SK-MEL-28 melanoma
UACC-257 melanoma = system: UACC-257 melanoma
MDA-MB-435 = system: MDA-MB-435
NCI-H522 lung = system: NCI-H522 lung
MDA-N = system: MDA-N
EKVX NSCLC = system: EKVX NSCLC
HOP-62 NSCLC = system: HOP-62 NSCLC
SNB-75 CNS = system: SNB-75 CNS
CCRF-CEM leukemia = system: CCRF-CEM leukemia

## CC(CCc1nc2ccccc2s1)(c1ccc(O)cc1)c1ccc(O)cc1
MOLT-4 leukemia
  TGI: 42.9 µM
SK-MEL-28 melanoma
  TGI: 33.7 µM
UACC-257 melanoma
  TGI: 28.7 µM
MDA-MB-435
  TGI: 30.8 µM
NCI-H522 lung
  TGI: 32 µM
MDA-N
  TGI: 31.1 µM
EKVX NSCLC
  TGI: 32.3 µM
HOP-62 NSCLC
  TGI: 31.5 µM
SNB-75 CNS
  TGI: 34 µM

## O=Nc1c(-c2c(O)[nH]c3ccc(I)cc23)[nH]c2ccccc12
SK-MEL-28 melanoma
  TGI: > 100 µM
UACC-257 melanoma
  TGI: > 100 µM
MDA-MB-435
  TGI: > 100 µM
NCI-H522 lung
  TGI: > 26.1 µM
MDA-N
  TGI: 47.2 µM
EKVX NSCLC
  TGI: > 69.7 µM
HOP-62 NSCLC
  TGI: > 30.8 µM
CCRF-CEM leukemia
  TGI: 5.07 µM
SNB-75 CNS
  TGI: 20.7 µM

## Oc1c(Cl)cc2cc1-c1cc(cc(Cl)c1O)CCc1c(cc(Cl)c(O)c1Cl)-c1cc(Cl)c(c(Cl)c1O)/C=C\2
MOLT-4 leukemia
  TGI: > 50 µM
SK-MEL-28 melanoma
  TGI: 19.3 µM
UACC-257 melanoma
  TGI: 35.8 µM
MDA-MB-435
  TGI: 21.7 µM
HOP-62 NSCLC
  TGI: 16 µM
CCRF-CEM leukemia
  TGI: > 50 µM
SNB-75 CNS
  TGI: 17.6 µM

## NC1CCCCC1NCCNC1CCCCC1N (stereo not drawn)
MOLT-4 leukemia
  TGI: > 100 µM
SK-MEL-28 melanoma
  TGI: > 100 µM
UACC-257 melanoma
  TGI: > 100 µM
MDA-MB-435
  TGI: > 100 µM
NCI-H522 lung
  TGI: > 100 µM
MDA-N
  TGI: > 100 µM
EKVX NSCLC
  TGI: > 100 µM
HOP-62 NSCLC
  TGI: > 100 µM
CCRF-CEM leukemia
  TGI: > 100 µM

## O=C(O)Cn1c2c(c3c1-c1ccccc1C3=O)C(=O)CCC2
MOLT-4 leukemia
  GI50: > 100 µM
  TGI: > 100 µM
SK-MEL-28 melanoma
  GI50: > 100 µM
  TGI: > 100 µM
UACC-257 melanoma
  GI50: > 100 µM
  TGI: > 100 µM
MDA-MB-435
  GI50: > 100 µM
  TGI: > 100 µM
NCI-H522 lung
  GI50: > 100 µM
  TGI: > 100 µM
EKVX NSCLC
  GI50: > 100 µM
  TGI: > 100 µM
HOP-62 NSCLC
  GI50: > 100 µM
  TGI: > 100 µM
CCRF-CEM leukemia
  GI50: 32 µM
  TGI: > 100 µM
SNB-75 CNS
  GI50: > 100 µM
  TGI: > 100 µM

## COc1ccc(/C=c2\[nH]c3nc(=O)c(N4CCCCC4)c(N)n3c2=O)cc1
MOLT-4 leukemia
  TGI: > 100 µM
SK-MEL-28 melanoma
  TGI: > 100 µM
UACC-257 melanoma
  TGI: > 100 µM
MDA-MB-435
  TGI: > 100 µM
NCI-H522 lung
  TGI: > 100 µM
MDA-N
  TGI: > 100 µM
EKVX NSCLC
  TGI: > 100 µM
CCRF-CEM leukemia
  TGI: > 100 µM
SNB-75 CNS
  TGI: 78.7 µM

## COC(=O)[C@@H](NS(=O)(=O)CC12CCC(CC1)C2(C)C)C(C)(C)C
MOLT-4 leukemia
  TGI: 70 µM
SK-MEL-28 melanoma
  TGI: > 100 µM
UACC-257 melanoma
  TGI: > 100 µM
MDA-MB-435
  TGI: > 100 µM
NCI-H522 lung
  TGI: > 100 µM
MDA-N
  TGI: > 100 µM
EKVX NSCLC
  TGI: > 100 µM
CCRF-CEM leukemia
  TGI: > 100 µM
SNB-75 CNS
  TGI: > 100 µM

## Cc1cc2c(=O)c3ccc(Cl)cc3[nH]c2c(C(N)=O)c1C
MOLT-4 leukemia
  TGI: > 100 µM
SK-MEL-28 melanoma
  TGI: > 100 µM
UACC-257 melanoma
  TGI: > 100 µM
NCI-H522 lung
  TGI: > 100 µM
EKVX NSCLC
  TGI: > 100 µM
HOP-62 NSCLC
  TGI: > 100 µM
CCRF-CEM leukemia
  TGI: > 100 µM
SNB-75 CNS
  TGI: > 100 µM

## Cc1ccc(S(=O)(=O)OCCC2CN(C(=O)OCc3ccccc3)C(C)(C)O2)cc1 (stereo not drawn)
MOLT-4 leukemia
  TGI: 47.8 µM
SK-MEL-28 melanoma
  TGI: 82.1 µM
UACC-257 melanoma
  TGI: > 100 µM
MDA-MB-435
  TGI: 22.5 µM
NCI-H522 lung
  TGI: 20.1 µM
MDA-N
  TGI: > 100 µM
EKVX NSCLC
  TGI: > 100 µM
CCRF-CEM leukemia
  TGI: > 100 µM

## O=C1CC(c2ccsc2)n2cccc21 (stereo not drawn)
SK-MEL-28 melanoma
  TGI: > 100 µM
UACC-257 melanoma
  TGI: > 100 µM
MDA-MB-435
  TGI: > 100 µM
NCI-H522 lung
  TGI: > 100 µM
EKVX NSCLC
  TGI: > 100 µM
HOP-62 NSCLC
  TGI: > 100 µM
CCRF-CEM leukemia
  TGI: > 100 µM
SNB-75 CNS
  TGI: > 100 µM

## N/N=C(/N)SCCCCCCCCCCS/C(N)=N/N
SK-MEL-28 melanoma
  TGI: > 100 µM
UACC-257 melanoma
  TGI: > 100 µM
MDA-MB-435
  TGI: > 100 µM
NCI-H522 lung
  TGI: 65.6 µM
EKVX NSCLC
  TGI: > 100 µM
HOP-62 NSCLC
  TGI: > 100 µM
CCRF-CEM leukemia
  TGI: > 100 µM

## Cc1cn(C2CC(COCc3ccccc3)N(CCO[Si](C)(C)C(C)(C)C)O2)c(=O)[nH]c1=O (stereo not drawn)
MOLT-4 leukemia
  TGI: 32.3 µM
SK-MEL-28 melanoma
  TGI: 34.7 µM
MDA-MB-435
  TGI: 34.9 µM
NCI-H522 lung
  TGI: 31.4 µM
MDA-N
  TGI: 27.9 µM
HOP-62 NSCLC
  TGI: 31 µM

## C/C(=C\Cc1ccc(F)cc1)CCCCCC/C(C)=C/Cc1ccc(F)cc1
MOLT-4 leukemia
  TGI: 47.6 µM
UACC-257 melanoma
  TGI: 33.3 µM
MDA-MB-435
  TGI: 39 µM
NCI-H522 lung
  TGI: 21 µM
MDA-N
  TGI: 34.2 µM
EKVX NSCLC
  TGI: 37.2 µM
HOP-62 NSCLC
  TGI: 37.2 µM
CCRF-CEM leukemia
  TGI: 42.6 µM
SNB-75 CNS
  TGI: 35 µM

## Cc1nc(C)c(N2CCN(CN)CC2)c(=O)[nH]1
MOLT-4 leukemia
  TGI: > 100 µM
SK-MEL-28 melanoma
  TGI: > 100 µM
UACC-257 melanoma
  TGI: > 100 µM
MDA-MB-435
  TGI: > 100 µM
NCI-H522 lung
  TGI: > 100 µM
MDA-N
  TGI: > 100 µM
EKVX NSCLC
  TGI: > 100 µM
HOP-62 NSCLC
  TGI: > 100 µM
CCRF-CEM leukemia
  TGI: > 100 µM

## Cc1ccc(-n2nncc2[Si](C)(C)C)s1
SK-MEL-28 melanoma
  TGI: > 100 µM
UACC-257 melanoma
  TGI: > 100 µM
MDA-MB-435
  TGI: > 100 µM
NCI-H522 lung
  TGI: > 100 µM
MDA-N
  TGI: > 100 µM
CCRF-CEM leukemia
  TGI: 56.7 µM

## CCC1=C(C[C@H]2NCCc3cc(OC)c(OC)cc32)C[C@H]2c3cc(OC)c(OC)cc3CCN2C1
MOLT-4 leukemia
  TGI: > 100 µM
SK-MEL-28 melanoma
  TGI: 0.192 µM
UACC-257 melanoma
  TGI: 0.365 µM
NCI-H522 lung
  TGI: 0.0688 µM
EKVX NSCLC
  TGI: 0.175 µM
HOP-62 NSCLC
  TGI: 0.106 µM
SNB-75 CNS
  TGI: 0.107 µM

## COc1ccc(OC)c2c(C)ccnc12
SK-MEL-28 melanoma
  TGI: > 100 µM
UACC-257 melanoma
  TGI: > 92.5 µM
MDA-MB-435
  TGI: > 100 µM
NCI-H522 lung
  TGI: 21.8 µM
MDA-N
  TGI: > 100 µM
EKVX NSCLC
  TGI: > 100 µM
HOP-62 NSCLC
  TGI: > 60.9 µM
CCRF-CEM leukemia
  TGI: > 29.8 µM
SNB-75 CNS
  TGI: > 100 µM

## O=C1CCCCC/C1=C\c1cccc(F)c1
MOLT-4 leukemia
  TGI: > 100 µM
SK-MEL-28 melanoma
  TGI: > 100 µM
UACC-257 melanoma
  TGI: > 100 µM
MDA-MB-435
  TGI: > 100 µM
MDA-N
  TGI: > 100 µM
EKVX NSCLC
  TGI: > 100 µM
HOP-62 NSCLC
  TGI: > 100 µM
CCRF-CEM leukemia
  TGI: 81.4 µM
SNB-75 CNS
  TGI: > 100 µM

## CCOC(=O)c1cc2c3c(c(C(C)=O)c(OC)c2[nH]1)N(C(=O)CC)CC3
MOLT-4 leukemia
  TGI: 35.9 µM
SK-MEL-28 melanoma
  TGI: 44.7 µM
UACC-257 melanoma
  TGI: 49.4 µM
MDA-MB-435
  TGI: 50.3 µM
MDA-N
  TGI: 39.4 µM
EKVX NSCLC
  TGI: 30.6 µM
HOP-62 NSCLC
  TGI: 56.9 µM
CCRF-CEM leukemia
  TGI: 71.4 µM
SNB-75 CNS
  TGI: 57.1 µM

## O=C(Nc1ccc(-n2cc(-c3ccncc3)c(-c3ccc(O)c(Cl)c3)n2)cc1)c1ccc(Cl)c(C(F)(F)F)c1
MOLT-4 leukemia
  GI50: 1.69 µM
  TGI: 34.2 µM
SK-MEL-28 melanoma
  GI50: 3.61 µM
  TGI: > 50 µM
UACC-257 melanoma
  GI50: 4.87 µM
  TGI: 34.5 µM
MDA-MB-435
  GI50: 2.06 µM
  TGI: 39.4 µM
NCI-H522 lung
  GI50: 1 µM
  TGI: 4.88 µM
EKVX NSCLC
  GI50: 4.83 µM
  TGI: > 50 µM
HOP-62 NSCLC
  GI50: 2.31 µM
  TGI: > 50 µM
CCRF-CEM leukemia
  GI50: 0.275 µM
  TGI: > 50 µM
SNB-75 CNS
  GI50: 2.23 µM
  TGI: > 50 µM

## Cn1c2ccccc2n2c3ncccc3c(=O)cc12
MOLT-4 leukemia
  TGI: > 100 µM
SK-MEL-28 melanoma
  TGI: > 100 µM
UACC-257 melanoma
  TGI: > 100 µM
MDA-MB-435
  TGI: > 100 µM
NCI-H522 lung
  TGI: > 100 µM
MDA-N
  TGI: > 100 µM
EKVX NSCLC
  TGI: > 100 µM
HOP-62 NSCLC
  TGI: > 100 µM
SNB-75 CNS
  TGI: > 100 µM

## O=C1c2ccncc2C(=O)c2c(O)ccc(O)c21
MOLT-4 leukemia
  TGI: 54.5 µM
SK-MEL-28 melanoma
  TGI: 26.7 µM
EKVX NSCLC
  TGI: 32.1 µM
HOP-62 NSCLC
  TGI: 61.6 µM
CCRF-CEM leukemia
  TGI: 32.7 µM
SNB-75 CNS
  TGI: 49.1 µM

## CCOC(=O)CCC(NC(=O)C(Cc1ccc([N+](=O)[O-])cc1)NC(=O)OC(C)(C)C)C(=O)NC(CCC(=O)OCC)C(=O)OCC (stereo not drawn) (Boc-[Phe(4-NO2)]-Glu(OEt)-Glu(OEt)-OEt; configuration not given here)
MOLT-4 leukemia
  TGI: 6.62 µM
SK-MEL-28 melanoma
  TGI: 32.1 µM
MDA-N
  TGI: 52.6 µM
HOP-62 NSCLC
  TGI: 67.4 µM
SNB-75 CNS
  TGI: 31.5 µM
